Where a name gives a salt, the structure may show the parent alone. Read-outs that look alike come from different tables or passages of the source.
Assays:
[1] = test system: CACO2; experiment: Antiproliferative activity in human tumor cell lines, PROTOCOL 1 and PROTOCOL 2; format: cell-based; settings: Caco-2, colon tumor cell line CACO2, 48 hours, read-out: IC50
Method: (§1) The antiproliferative activity of the compounds of Formula I in an Adult Bovine Aortic Endothelial (ABAE) cell line and in Human Tumor cells lines is evaluated in three similar assays that measure growth inhibition. The assays are identified as follows:
(§2) PROTOCOLS 1, 2, and 3 are described in greater detail hereinbelow. In general, according to PROTOCOLS 1 and 2, the target ABAE and/or Human Tumor cells are exposed to the compounds of Formula I for 48 hours. PROTOCOL 3 exposes ABAE cells to the compounds for 4 days. A detailed description of the Protocols is as follows:
(§3) Antiproliferative Activity in Human Tumor Cell Lines
(§4) The antiproliferative activity of the compounds of Formula I of the present invention is evaluated in a panel comprised of human tumor cell lines. The human tumor cell lines are from
(§5) 2) Colon tumors: MIP, CACO2, and SW620.
(§6) All cell lines are maintained in log phase in RPMI 1640 media, supplemented with 5% fetal calf serum, penicillin/streptomycin and 2 mM L-glutamine. Cultures are renewed after 20 passages with cells from a fresh stock of batch-frozen early passage cells. Cell lines are routinely checked for mycoplasma contamination (Genprobe). In a laminar flow hood, cells (1-5×10^4) are plated into 96-well microtiter plates in a volume of 0.1 ml/well with a bulk microtiter dispenser (Denley). […] At this concentration, dimethylsulfoxide has no effect on cell growth. Compounds are added using a Tomtec dispenser which simultaneously dispenses from one 96-well plate, containing the drug dilutions, to the plates containing the cells. After two days of continuous drug exposure, 50% cold trichloroacetic acid (TCA) is added to 10% final concentration to fix the cells, and after 60 minutes at 4° C., the TCA is aspirated and the plates are washed 5 times with deionized water using a microtiter plate washer. The number of cells on the plate are quantitated using a protein dye-binding assay (Monks et al., 1991). A 0.4% solution of the dye, sulforhodamine B, in […] is added to the plates, and the plates are washed 5 times with 1% glacial acetic acid using the automatic plate washed. The bound stain is solubilized with 0.1 ml of 10 mMTris base. The optical densities are read from an automatic spectrophotometric plate reader (Dynatech) directly to a main frame computer (VAX 8600).
(§7) Positive controls, that include standard chemotherapeutic drugs (i.e., adriamycin, cisplatin, etc.), are included in every experiment.
(§8) Background optical density measurements (complete media--cells, and complete media+drug-cells) are automatically subtracted from the appropriate control and test wells. Mean values and standard errors are determined from duplicate wells. A measure is also made of the optical density at time when the drugs are added. The number of cells after treatment (P), as % of control, is calculated for every concentration of drug, as follows: [formula] wherein: T is optical density measurement for treated cells after 48 hours;
(§9) C is optical density measurement for untreated cells after 48 hours;
(§10) Co is optical density measurement for cells at the time of drug addition.
(§11) IC50 of Growth inhibition is calculated from the sets of P values using the RS-1 data package (BBN Software).
(§12) Antiproliferative Activity in Human Tumor and Adult Bovine Aortic Endothelial Cell Lines (ABAE)
(§13) The antiproliferative activity of the compounds of Formula I is evaluated in a panel comprised of human tumor cell lines as listed in Protocol 1 as well as an adult bovine aortic endothelial cell line (ABAE). This assay is a modification of PROTOCOL 1. The modifications include:
(§14) 1) each concentration for each compound is tested in a single well;
(§15) 2) compounds are tested at 20, 4, 0.8, 0.16 microgram/ml and additionally in some experiments at 100 and 0.32 microgram/ml;
(§16) 3) samples are pipetted into a 96-well plate for each of the cell lines by a Beckman Biomek 1000 SL robot; […]

[2] = test system: MIP; experiment: as above; format: cell-based; settings: colon tumor cell line MIP, 48 hours
Method: as §1, §2, §3, §4, §5, §6, §7, §8, §9, §10, §11, §12, §13, §14, §15, §16

[3] = test system: SW620; experiment: as above; format: cell-based
Method: as §1, §2, §3, §4, §5, §6, §7, §8, §9, §10, §11, §12, §13, §14, §15, §16

[4] = test system: Adult Bovine Aortic Endothelial (ABAE) cell line; experiment: Antiproliferative activity in Adult Bovine Aortic Endothelial (ABAE) cell line, PROTOCOL 3 (4 days, cell count); format: cell-based; settings: for IC50: Bos taurus, 96 h
Method: as §1, §2
Antiproliferative Activity in Adult Bovine Aortic Endothelial (ABAE) Cell Line
ABAE cells are grown in DMEM media (Mediatech, Washington, D.C.) supplemented with 10% calf serum (Hyclone). ABAE cells are plated in 24-well dishes at 8,000 cells/well, followed by the addition of increasing concentrations of 7-halogen-9-[hydrogen or [(substituted glycyl)amido]]-6-demethyl-6-deoxytetracycline. After four days, the cells are detached and counted. […] The growth inhibition (I) as % of control is calculated as follows: [formula] wherein: Nc is the number of cells in untreated wells;
Nt is the number of cells in treated wells;
No is the number of plated cells.
IC50 of growth inhibition is determined from the sets of I values plotted by Kaleidograph software (Abelbeck Software).
Table 1 presents the results depicting the antiproliferative activity of the compounds of Formula I against an ABAE cell line, as evaluated by PROTOCOL 2 and PROTOCOL 3. The results are presented in terms of IC50 and are as follows.

[5] = test system: A2780S; experiment: Antiproliferative activity in human tumor cell lines, PROTOCOL 1 and PROTOCOL 2; format: cell-based
Method: (§17) The assays are identified as follows: PROTOCOLS 1, 2, and 3 are described in greater detail hereinbelow. In general, according to PROTOCOLS 1 and 2, the target ABAE and/or Human Tumor cells are exposed to the compounds of Formula I for 48 hours. PROTOCOL 3 exposes ABAE cells to the compounds for 4 days. A detailed description of the Protocols is as follows: Antiproliferative Activity in Human Tumor Cell Lines The antiproliferative activity of the compounds of Formula I of the present invention is evaluated in a panel comprised of human tumor cell lines. […] Cultures are renewed after 20 passages with cells from a fresh stock of batch-frozen early passage cells. Cell lines are routinely checked for mycoplasma contamination (Genprobe). In a laminar flow hood, cells (1-5×10^4) are plated into 96-well microtiter plates in a volume of 0.1 ml/well with a bulk microtiter dispenser (Denley). […] Compounds are added using a Tomtec dispenser which simultaneously dispenses from one 96-well plate, containing the drug dilutions, to the plates containing the cells. After two days of continuous drug exposure, 50% cold trichloroacetic acid (TCA) is added to 10% final concentration to fix the cells, and after 60 minutes at 4° C., the TCA is aspirated and the plates are washed 5 times with deionized water using a microtiter plate washer. […] A 0.4% solution of the dye, sulforhodamine B, in glacial acetic acid is added to the plates, and the plates are washed 5 times with 1% glacial acetic acid using the automatic plate washed. The bound stain is solubilized with 0.1 ml of 10 mMTris base. The optical densities are read from an automatic spectrophotometric plate reader (Dynatech) directly to a main frame computer (VAX 8600). Positive controls, that include standard chemotherapeutic drugs (i.e., adriamycin, cisplatin, etc.), are included in every experiment. Background optical density measurements (complete media--cells, and complete media+drug-cells) are automatically subtracted from the appropriate control and test wells. Mean values and standard errors are determined from duplicate wells. A measure is also made of the optical density at time when the drugs are added. The number of cells after treatment (P), as % of control, is calculated for every concentration of drug, as follows: [formula] wherein: T is optical density measurement for treated cells after 48 hours; C is optical density measurement for untreated cells after 48 hours; Co is optical density measurement for cells at the time of drug addition. IC50 of Growth inhibition is calculated from the sets of P values using the RS-1 data package (BBN Software). Antiproliferative Activity in Human Tumor and Adult Bovine Aortic Endothelial Cell Lines (ABAE) The antiproliferative activity of the compounds of Formula I is evaluated in a panel comprised of human tumor cell lines as listed in Protocol 1 as well as an adult bovine aortic endothelial cell line (ABAE). This assay is a modification of PROTOCOL 1.

[6] = test system: A2780/DDP; experiment: as above; format: cell-based
Method: as §17

[7] = test system: HTB 161; experiment: as above; format: cell-based; settings: HTB 161, 48 hours
Method: as §17

[8] = test system: Human Tumor cell lines; experiment: Antiproliferative activity in panel of human tumor cell lines (average / panel as a whole), PROTOCOL 1 and PROTOCOL 2; format: cell-based; settings: Homo sapiens; average over the tumor cell lines tested
Method: as §1, §2, §3, §4, §5, §6, §7, §8, §9, §10, §11, §12, §13, §14, §15, §16

[9] = test system: angiogenesis; settings: Brem et al; in words; cited from earlier work
[10] = SW-620, colon tumor cell line SW620, 48 hours, read-out: IC50
[11] = ovarian tumor cell line A2780S, 48 hours, read-out: IC50

Work on `CN(C)[C@@H]1C(O)=C(C(N)=O)C(=O)[C@@]2(O)C(O)=C3C(=O)c4c(O)c(NC(=O)CN5CCCCC5)cc(I)c4CC3CC12` (stereo partly drawn) [Example 6, [7S-(7α,10aα)]-N-9-[(Aminocarbonyl)-7-(dimethylamino)-5,5a,6,6a,7,10,10a,12-octahydro-1,8,10a,11-tetrahydroxy-4-iodo-10,12-dioxo-2-naphthacenyl]-1-piperidine-acetamide dihydrochloride] yielded an IC50 [1] of 4 µg/mL, an IC50 [2] of 0.6 µg/mL and an IC50 [3, 10] of 0.4 µg/mL. The IC50 ([4]; ABAE cells, PROTOCOL 3, 4 days, read-out: IC50 PROTOCOL 3) was 2.5 µg/mL, the IC50 ([4]; FIG. 1, ABAE, 4 day assay (Protocol 3), read-out: inhibits 50% of cell growth at) was roughly 2 µg/mL and the “activity upon incubation with cells” value ([4]; FIG. 1, 4 day assay (Protocol 3), in words) was “retains its activity”. The “activity in preventing the proliferation of ABAE cells compared to Minocycline” value ([4]; Table 1, in words) was “increased activity”, the IC50 [5, 11] was 0.2 µg/mL and the IC50 ([6]; ovarian tumor cell line /DDP, 48 hours, read-out: IC50) was 0.8 µg/mL. For the same molecule, the IC50 [7] was 0.2 µg/mL and the IC50 [8] was 1 µg/mL.
For `CN(C)[C@@H]1C(O)=C(C(N)=O)C(=O)[C@@]2(O)C(O)=C3C(=O)c4c(O)ccc(Cl)c4[C@@](C)(O)[C@H]3C[C@@H]12` [Chlortetracycline], the inhibition of angiogenesis [9] is given as “useful as inhibitors of angiogenesis”.
For `CN(C)[C@@H]1C(O)=C(C(N)=O)C(=O)[C@@]2(O)C(O)=C3C(=O)c4c(O)ccc(Cl)c4[C@@H](O)[C@H]3C[C@@H]12` [Demeclocycline], the inhibition of angiogenesis [9] is given as “useful as inhibitors of angiogenesis”.
`CN(C)[C@@H]1C(O)=C(C(N)=O)C(=O)[C@@]2(O)C(O)=C3C(=O)c4c(O)c(NC(=O)CN5CCCC5)cc(I)c4CC3CC12` (stereo partly drawn) [Example 5, [7S-(7α,10aα)]-N-9-[(Aminocarbonyl)-7-(dimethylamino)-5,5a,6,6a,7,10,10a,12-octahydro-1,8,10a,11-tetrahydroxy-4-iodo-10,12-dioxo-2-naphthacenyl]-1-pyrrolidineacetamide dihydrochloride] showed an IC50 [2] of 4 µg/mL, an IC50 ([3]; SW-620, 48 h) of 4 µg/mL and an IC50 ([5]; A2780S, 48 h) of 4 µg/mL. For the same molecule, the IC50 ([6]; 48 h) was 4 µg/mL, the IC50 [7] was 3 µg/mL and the IC50 [8] was 3.8 µg/mL.
For `CN(C)[C@@H]1C(O)=C(C(=O)NCNCCCC[C@H](N)C(=O)O)C(=O)[C@@]2(O)C(O)=C3C(=O)c4c(O)cccc4[C@@](C)(O)[C@H]3C[C@@H]12` [Lymecycline], the inhibition of angiogenesis [9] is given as “useful as inhibitors of angiogenesis”.
With `CN(C)[C@@H]1C(O)=C(C(N)=O)C(=O)[C@@]2(O)C(O)=C3C(=O)c4c(O)c(NC(=O)CNC5CCCC5)cc(I)c4CC3CC12` (stereo partly drawn) [Example 7, [4S-(4',12aα)]-9-[[(Cyclopentylamino)acetyl]amino]-4-(dimethylamino)-1,4,4a,5,5a,6,11,12a-octahydro-3,10,12,12a-tetrahydroxy-7-iodo-1,11-dioxo-2-maphthacenecarboxamide dihydrochloride] the IC50 [3, 10] was 3 µg/mL, the IC50 [5, 11] was 2 µg/mL and the IC50 [7] was 1 µg/mL. For the same molecule, the IC50 [8] was 2 µg/mL.
